{"source": "patent US20210355545A1", "about": "“METHODS AND MATERIALS FOR ASSESSING AND TREATING CANCER” (The Johns Hopkins University, priority 2018, published 2021)", "system": "ovarian cancer cell lines", "experiment": "Cell growth inhibition (viable cell count, trypan blue exclusion) of ovarian cancer cell lines after seven days with inhibitor; logIC50 modelled against alteration status", "type": "cell-based, human", "settings": "for increased sensitivity to PARP inhibition: from difference of mean log IC50", "experimental": "To begin to understand the relationship between genomic, epigenetic and expression alterations and response to pathway inhibitors, a screening platform was developed for evaluating cellular proliferation in the presence of candidate therapeutic agents. As an example of the analyses that can be performed and the genotype-phenotype connections that can be obtained, IC20, IC50, and IC80 were measured after seven days of incubation for three inhibitors, GNE-493, BMN673, and MEK162, targeting PI3K, PARP, and MEK proteins, respectively (Table 11). Aggregating the molecular information from multiple platforms to the gene level, analyses was limited to genes that were altered in three or more of the 45 cell lines. Alterations that tend to be mutually exclusive between cell lines were combined, including genes in the PI3K pathway (PIK3CA and PPP2R1A) and the genes in the TGFBR pathway (SMAD3 and SMAD4). As tumors with homologous recombination deficiencies (HRD) have been known to be sensitive to PARP inhibitors, covariates summarizing the extent of genome-wide structural alterations for the PARP inhibitor BMN673 were additionally added. A priori it was hypothesized that most alterations would not modulate response to the targeted inhibitors. Implementing a Bayesian model averaging approach to variable selection as has been considered for other biomarkers (see, e.g., Viallefont et al., 2001 Statistics in Medicine 20:3215-3230; Neto et al., 2014 Pacific Symposium on Biocomputing. Pacific Symposium on Biocomputing: 27-38; and Meisner et al., 2018 Biomarker research 6:3), a positive prior probability that the coefficient for each gene is exactly zero was specified. Given the genes or combination of genes and structural variant summaries, the space of possible single- and multi-variate models for logIC50 was explored by Markov Chain Monte Carlo. Relevant posterior summaries available for each inhibitor include the probability that the regression coefficient is non-zero and the posterior distribution of the regression coefficients.\nCell lines were obtained from multiple sources (Table 1). Cells were plated into 24-well tissue culture plates at a density of 2×10^5 to 5×10^5 cells per well and grown in cell-line-specific medium without or with increasing concentrations of their respective drugs (ranging between […]).\nCells were counted on day 7 using an automated cell viability assay (Vi-CELL XR Cell Viability Analyzer, Beckman Coulter, Fullerton, Calif., USA), a video imaging system that uses an automated trypan blue exclusion protocol. Both adherent and floating viable cells were counted for treatment and control wells. Growth inhibition (GI) was calculated as a percentage of untreated controls. The log of the fractional GI was then plotted against the log of the drug concentration and the IC50 values were interpolated from the resulting linear regression curve fit (CalcuSyn; Biosoft, Ferguson, Mo., USA). Experiments were performed thrice in duplicate for each cell line.\nBayesian model averaging: models of the form\nwere considered where Ci denotes the logIC50 and xi;j an indicator for the alteration status (0 not altered, 1 altered) of feature j in cell line i. The regression coefficient for feature j is the product of a binary indicator zj and a real number hj. A modified g-prior was used for γ such that γj was zero whenever zj was zero. For the vector of γ's with non-zero z's, a multivariate normal prior was used. The space of the possible 2p models was explored using a Gibbs sampler. The binary features comprising the x's included somatic mutations, somatic structural variants (deletions, amplifications, in-frame fusions), methylation, and under- or over-expression. For the PARP inhibitor, the number of intra-chromosomal rearrangements and the HRD score as potential markers for HRD were additionally considered. […]"}
{"smiles": "Cn1ncnc1[C@H]1c2n[nH]c(=O)c3cc(F)cc(c23)N[C@@H]1c1ccc(F)cc1", "note": "[BMN673, talazoparib]", "values": [{"measurement": "increased sensitivity to PARP inhibition", "setting": "cell lines with MYC amplification vs without, 90% CI: 99%-64%", "value": 93, "unit": "%"}, {"measurement": "association with sensitivity to PARP inhibition", "setting": "cell lines with inactivating BRCA1/2 mutations, HRD score, PARP1 expression", "value": "trend towards increased sensitivity to PARP inhibition but were not statistically significant"}, {"measurement": "increased sensitivity to PARP inhibition", "setting": "cell lines with increased number of genome-wide rearrangements vs without, 90% CI, 96%-43%", "value": 86, "unit": "%"}]}
{"smiles": "CC(C)(O)c1cc2nc(-c3cnc(N)nc3)nc(N3CCOCC3)c2s1", "note": "[GNE-493]", "values": [{"measurement": "increased sensitivity", "setting": "cancer cell lines with mutations in PARP1 or PPP2R1A (so in the source)", "value": 66, "unit": "%"}, {"measurement": "difference in mean logIC50 by alteration status", "setting": "cell lines with mutations in PIK3CA or PPP2R1A vs without, 7 days incubation", "value": "−0.63"}, {"measurement": "increased sensitivity to the inhibitor", "setting": "cell lines with mutations in PIK3CA or PPP2R1A vs without, FIG. 6B legend, 90% HPD: 5-72", "value": 48, "unit": "%"}]}
{"smiles": "Cn1cnc2c(F)c(Nc3ccc(Br)cc3F)c(C(=O)NOCCO)cc21", "note": "[MEK-162, binimetinib]", "values": [{"measurement": "increased sensitivity", "setting": "cell lines with mutations or deletions in SMAD3 or SMAD4", "value": 89, "unit": "%"}]}
